Measurements published in patent publication US6087493A, “Porphyrin compounds as telomerase inhibitors” (Regents of the University of Texas System, priority 1998, dated 2000).

molecular target: human telomerase (Homo sapiens, UniProt O14746); assay: Telomerase inhibition, primer extension assay in HeLa cell extract; assay type: biochemical; conditions: not given
Sequence (O14746 whole entry): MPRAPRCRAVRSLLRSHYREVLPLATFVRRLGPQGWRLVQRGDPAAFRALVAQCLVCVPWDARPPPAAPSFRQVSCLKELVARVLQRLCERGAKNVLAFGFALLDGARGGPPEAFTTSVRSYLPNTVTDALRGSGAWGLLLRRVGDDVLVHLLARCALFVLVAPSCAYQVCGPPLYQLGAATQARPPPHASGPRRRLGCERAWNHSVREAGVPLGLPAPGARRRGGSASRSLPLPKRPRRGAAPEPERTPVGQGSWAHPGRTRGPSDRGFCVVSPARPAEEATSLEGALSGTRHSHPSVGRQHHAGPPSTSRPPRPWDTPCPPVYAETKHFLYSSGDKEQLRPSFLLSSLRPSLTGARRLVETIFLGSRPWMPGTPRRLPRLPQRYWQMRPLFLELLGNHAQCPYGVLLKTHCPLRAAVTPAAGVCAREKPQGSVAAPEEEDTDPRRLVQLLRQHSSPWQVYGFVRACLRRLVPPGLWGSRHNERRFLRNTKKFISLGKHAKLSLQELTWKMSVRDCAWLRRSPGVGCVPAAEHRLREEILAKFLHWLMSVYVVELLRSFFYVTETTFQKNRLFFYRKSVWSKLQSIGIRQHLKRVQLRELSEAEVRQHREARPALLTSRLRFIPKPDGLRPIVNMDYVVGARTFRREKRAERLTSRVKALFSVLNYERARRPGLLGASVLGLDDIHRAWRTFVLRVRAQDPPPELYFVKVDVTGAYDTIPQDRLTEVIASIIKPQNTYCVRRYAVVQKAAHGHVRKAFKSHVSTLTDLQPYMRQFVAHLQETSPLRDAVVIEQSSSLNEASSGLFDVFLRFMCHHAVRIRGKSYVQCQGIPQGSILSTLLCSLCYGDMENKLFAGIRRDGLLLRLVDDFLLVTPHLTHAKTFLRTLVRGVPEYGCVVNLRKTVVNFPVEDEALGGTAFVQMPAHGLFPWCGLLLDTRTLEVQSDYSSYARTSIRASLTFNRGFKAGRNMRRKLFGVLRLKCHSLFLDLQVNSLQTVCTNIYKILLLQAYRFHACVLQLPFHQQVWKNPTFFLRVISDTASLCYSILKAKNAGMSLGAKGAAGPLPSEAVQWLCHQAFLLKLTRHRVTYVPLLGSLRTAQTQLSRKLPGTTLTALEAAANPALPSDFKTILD

Row | Compound | telomerase inhibition in words
1 | 5,10-di-(N-methyl-4-pyridyl)-15,20-di-(3-nitrophenyl)porphine chloride [Compound D20] | good activity

same assay, conditions: 25 μM; Table 5; read-out: % Inhibition of telomerase

Row | Compound | inhibition at 25 µM [%]
2 | C[n+]1ccccc1-c1c2nc(c(-c3cccc[n+]3C)c3ccc([nH]3)c(-c3cccc[n+]3C)c3nc(c(-c4cccc[n+]4C)c4ccc1[nH]4)C=C3)C=C2 [Compound B8, Tetra(N-methyl-2-pyridyl)porphyrin chloride] | 0

same assay, conditions: 25 μM; Table 6

Row | Compound | % Inhibition of telomerase [%]
3 | 5,10-di-(N-methyl-3-quinolyl)-15,20-di-(N-methyl-3-pyridyl)porphine chloride [Compound D12] | 80

same assay, conditions: 25 μM; Table 7; read-out: % Inhibition of telomerase

Row | Compound | inhibition at 25 µM [%]
4 | C[n+]1ccc(-c2c3nc(c(-c4ccccc4)c4ccc([nH]4)c(-c4cc[n+](C)cc4)c4nc(c(-c5ccccc5)c5ccc2[nH]5)C=C4)C=C3)cc1 [Compound B4, 5,15-Diphenyl-10,20-di(N-methyl-4-pyridyl)porphyrin chloride] | 30
5 | C[n+]1ccc(-c2c3nc(c(-c4ccccc4)c4ccc([nH]4)c(-c4ccccc4)c4nc(c(-c5cc[n+](C)cc5)c5ccc2[nH]5)C=C4)C=C3)cc1 [Compound B5, 5,10-Diphenyl-15,20-di(N-methyl-4-pyridyl)porphyrin chloride] | 20
6 | C[n+]1ccc(-c2c3nc(c(-c4cc[n+](C)cc4)c4ccc([nH]4)c(-c4cc[n+](C)cc4)c4nc(c(-c5ccccc5)c5ccc2[nH]5)C=C4)C=C3)cc1 [Compound B6, Tri(N-methyl-4-pyridyl)phenylporphyrin chloride] | 15
7 | C[n+]1cccc(-c2c3nc(c(-c4ccccc4)c4ccc([nH]4)c(-c4ccc[n+](C)c4)c4nc(c(-c5ccccc5)c5ccc2[nH]5)C=C4)C=C3)c1 [Compound B9, 5,15-Diphenyl-10,20-di(N-methyl-3-pyridyl)porphyrin chloride] | 18
8 | C[n+]1cccc(-c2c3nc(c(-c4ccc[n+](C)c4)c4ccc([nH]4)c(-c4ccc[n+](C)c4)c4nc(c(-c5ccccc5)c5ccc2[nH]5)C=C4)C=C3)c1 [Compound B10, Tri(N-methyl-3-pyridyl)phenylporphyrin chloride] | 42
9 | C[n+]1cccc(-c2c3nc(c(-c4ccc[n+](C)c4)c4ccc([nH]4)c(-c4ccccc4)c4nc(c(-c5ccccc5)c5ccc2[nH]5)C=C4)C=C3)c1 [Compound B22] | 20
10 | C[n+]1ccc(-c2c3nc(c(-c4ccccc4)c4ccc([nH]4)c(-c4ccccc4)c4nc(c(-c5ccccc5)c5ccc2[nH]5)C=C4)C=C3)cc1 [Compound B24] | 34
11 | C[n+]1cccc(-c2c3nc(c(-c4ccccc4)c4ccc([nH]4)c(-c4ccccc4)c4nc(c(-c5ccccc5)c5ccc2[nH]5)C=C4)C=C3)c1 [Compound B25] | 35
12 | C[n+]1ccccc1-c1c2nc(c(-c3ccccc3)c3ccc([nH]3)c(-c3ccccc3)c3nc(c(-c4ccccc4)c4ccc1[nH]4)C=C3)C=C2 [Compound B26] | 0
13 | Cc1ccc(-c2c3nc(c(-c4ccc(C)cc4)c4ccc([nH]4)c(-c4cc[n+](C)cc4)c4nc(c(-c5ccc(C)cc5)c5ccc2[nH]5)C=C4)C=C3)cc1 [Compound D9, 5-(N-methyl-4-pyridyl)-10,15,20-(4-methylphenyl)porphine chloride] | 31

same assay, conditions: 25 μM; Table 10

Row | Compound | % Inhibition of telomerase [%]
14 | 5,10-di-(N-methyl-4-pyridyl)-15,20-di-(3-nitrophenyl)porphine chloride [Compound D20] | 70

same assay, conditions: 25 μM; Table 13; read-out: % Inhibition of telomerase

Row | Compound | inhibition at 25 µM [%]
15 | Nc1ccc(-c2c3nc(c(-c4ccc(N)cc4)c4ccc([nH]4)c(-c4ccc(N)cc4)c4nc(c(-c5ccc(N)cc5)c5ccc2[nH]5)C=C4)C=C3)cc1 [Compound B1, Tetra-(4-aminophenyl)porphyrin] | 50
16 | Nc1cccc(-c2c3nc(c(-c4cccc(N)c4)c4ccc([nH]4)c(-c4cccc(N)c4)c4nc(c(-c5cccc(N)c5)c5ccc2[nH]5)C=C4)C=C3)c1 [Compound B2, Tetra-(3-aminophenyl)porphyrin] | 15
17 | Nc1ccccc1-c1c2nc(c(-c3ccccc3N)c3ccc([nH]3)c(-c3ccccc3N)c3nc(c(-c4ccccc4N)c4ccc1[nH]4)C=C3)C=C2 [Compound B3, Tetra-(2-aminophenyl)porphyrin] | 3
18 | C[n+]1ccc(-c2c3nc(c(-c4ccccc4)c4ccc([nH]4)c(-c4cc[n+](C)cc4)c4nc(c(-c5ccccc5)c5ccc2[nH]5)C=C4)C=C3)cc1 [Compound B4, 5,15-Diphenyl-10,20-di(N-methyl-4-pyridyl)porphyrin chloride] | 47
